Literature values, collected in patent US20240189323A1, “PREPARATION FOR ETHINYLESTRADIOL-CYCLODEXTRIN COMPLEX AND USE THEREOF” (NATIONAL RESEARCH INSTITUTE FOR FAMILY PLANNING, priority 2022, published 2024).

Conditions: background description

solubility in water: almost insoluble in water
SMILES: C#C[C@]1(O)CC[C@H]2[C@@H]3CCc4cc(O)ccc4[C@H]3CC[C@@]21C [ethinylestradiol, 3-hydroxy-19-nor-17α-pregna-1,3,5(10)-trien-20-yn-17-ol]
